Data published in patent publication US12016943B2, “Antiperspirant or deodorant composition” (Firmenich SA, priority 2016, dated 2024).

Columns and labels:
Format in all cases: physicochemical
[1] = Assessment of coloration of deodorant or antiperspirant formulations containing perfuming ingredients with or without Haloscent D; design: key: CO: color; COYE: yelow color; VSCOYE: very slight yellow color; SCOYE: slight yellow color; VCOYE: very yellow color; NC: no color; DECO: decoloration; CL: cloud; VCL: very cloud; WH: white; VCOBR: very brown color; COPI: ping color; details: perfuming ingredient 0.5 wt %, after 15 days
Method: (§1) Preparation of an Antiperspirant Spray Formulation: Using a high speed stirrer, Silica (Table 1) and Quaternium-18-Hectorite (Table 1) were added to the Isopropyl miristate (Table 1) and Cyclomethicone mixture (Table 1). Once completely swollen, Aluminium Chlorohydrate (Table 1) was added portion wise under stirring until the mixture was homogeneous and without lumps. The aerosol cans were filled with 25% Suspension of the suspension and 75% of Propane/Butane (2.5 bar).
(§2) Preparation of Deodorant Spray Formulation: All the ingredients according to the sequence of the Table 2 were mixed and dissolved. Then the aerosol cans were filled, crimp and add the propellant (Aerosol filling: 40% active solution 60% Propane/Butane 2.5 bar).
(§3) Part A was prepared by sprinkling little by little the Hydroxyethylcellulose (Table 3) in the water (Table 3) whilst rapidly stirring with the turbine. Stirring was continued until the Hydroxyethylcellulose had entirely swollen and giving a limpid gel. Then, Part B (Table 3) was poured little by little in Part A whilst continuing stirring until the whole was homogeneous. Part C was added (Table 3).
(§4) Preparation of a Deodorant Stick Formulation: All the components of Part A were weighted (Table 4) and heated up to 70-75° C. Ceteareth-25 (Table 4) was added once the other Part A ingredients were mixed and heated. Once the Ceteareth-25 was dissolved, the Stearic Acid was added. Part B was prepared by dissolving the Triclosan (Table 4) in 1,2 Propylene Glycol (Table 4). Water which has evaporated was added. Slowly under mixing, Part B was poured into part A. To stock, a plastic bag into the bucket was put in to be sealed after cooling. Moulds was filled at about 70° C.
(§5) Preparation of an Antiperspirant Stick Formulation: All the components of Part A were weighted (Table 5), heated up to 70-75° C. and mixed well. Ingredient of Part B was dispersed in Part A. The mixture was mixed and putted into a tick at 65° C.
(§6) Assessment of Coloration in the Perfuming Ingredients: To set of deodorant or antiperspirant formulations of point a) to e) has been prepared. A perfuming ingredient (0.5 wt %—Table 6, 7 and 8) was added to the first set a and a perfuming ingredient (0.5 wt %—Table 6, 7 and 8) and Haloscent® D (0.5 wt %) were added to the second set. All these formulations were placed at 3° C. and 45° C. for several weeks. All formulations were evaluated in comparison with unperfumed deodorant or antiperspirant formulation. The coloration of each formulation was assessed by a minimum of 2 panelists.

[2] = as above; design: key: CO: color; COYE: yellow color; SCOYE: slight yellow color; VCOYE: very yellow color; NC: no color; DECO: discoloration; CL: cloud; VCL: very cloud; WH: white; VCOBR: very brown color; COPI: ping color; details: perfuming ingredient 0.5 wt %, after 15 days
Method: as §1, §2, §3, §4, §5, §6

[3] = as above; design: key to Coloration of antiperspirant stick: CO: color; COYE: yelow color; VSCOYE: very slight yellow color; SCOYE: slight yellow color; VCOYE: very yellow color; NC: no color; DECO: decoloration; CL: cloud; VCL: very cloud; WH: white; VCOBR: very brown color; COPI: ping color; details: perfuming ingredient 0.5 wt %; for Coloration of antiperspirant stick: after 7 days
Method: as §1, §2, §3, §4, §5, §6

[4] = DEO ROLL-ON + Haloscent D 0.5 wt %, 3° C.
[5] = DEO STICK + Haloscent D 0.5 wt %, 3° C.
[6] = DEO STICK + Haloscent D 0.5 wt %, 45° C.
[7] = DEO ROLL-ON + Haloscent D 0.5 wt %, 45° C.
[8] = AP Stick + Haloscent D 0.5 wt %, 3° C.
[9] = AP Stick + Haloscent D 0.5 wt %, 45° C.
[10] = DEO SPRAY + Haloscent D 0.5 wt %, 3° C.
[11] = DEO SPRAY + Haloscent D 0.5 wt %, 45° C.
[12] = AP SPRAY + Haloscent D 0.5 wt %, 3° C.
[13] = AP SPRAY + Haloscent D 0.5 wt %, 45° C.

Compound	Coloration of deodorant roll-on [1, 4]	Coloration of deodorant roll-on ([1]; DEO ROLL-ON, 3° C.)	Coloration of deodorant roll-on ([1]; DEO ROLL-ON, 45° C.)	Coloration of deodorant stick [1, 5]	Coloration of deodorant stick [1, 6]	Coloration of deodorant stick ([1]; DEO STICK, 3° C.)	Coloration of deodorant stick ([1]; DEO STICK, 45° C.)	Coloration of antiperspirant stick [3, 8]	Coloration of antiperspirant stick [3, 9]	Coloration of antiperspirant stick ([3]; AP Stick, 3° C.)	Coloration of antiperspirant stick ([3]; AP Stick, 45° C.)	Coloration of antiperspirant spray ([1]; AP SPRAY, 45° C.)	Coloration of deodorant roll-on [1, 7]	Coloration of deodorant spray [1, 10]	Coloration of deodorant spray [1, 11]	Coloration of deodorant spray ([1]; DEO SPRAY, 3° C.)	Coloration of deodorant spray ([1]; DEO SPRAY, 45° C.)	further results
(+−)-(3E)-3-methyl-4-(2,6,6-trimethyl-2-cyclohexen-1-yl)-3-buten-2-one (A) + (+−)-(1E)-1-(2,6,6-trimethyl-2-cyclohexen-1-yl)-1-penten-3-one (B) [ISORALDEINE 70P]	WH	VCL	NC	NC	VCOYE	NC	VCOYE											Coloration of deodorant roll-on [2, 7]: COYE
c1ccc2[nH]ccc2c1 [2,3-BENZOPYRROLE]	NC	NC	NC	NC	NC	NC	SCOYE	COPI	VSCOYE	DECO	VSCOYE							Coloration of deodorant roll-on ([3]; DEO ROLL-ON + Haloscent D 0.5 wt %, 45° C., after 15 days): VSCOYE
CC(C)c1ccc2c(c1)OCC(=O)CO2 [CALONE, 7-ISOPROPYL-2H,4H-1,5-BENZODIOXEPIN-3-ONE]	NC	NC		COPI	VCOBR	COPI	VCOBR					SCOYE	CO	CO	CO	CO	CO	Coloration of antiperspirant spray [2, 12]: COYE; Coloration of antiperspirant spray [2, 13]: COYE; Coloration of antiperspirant spray ([2]; AP SPRAY, 3° C.): COYE; Coloration of deodorant roll-on ([2]; DEO ROLL-ON, 45° C.): DECO
CC(C)=CCCC(C)CCO (racemic) [(+−)-3,7-DIMETHYL-6-OCTEN-1-OL]	NC	NC	NC	SCOYE	NC	NC	NC	VSCOYE	VSCOYE	DECO	DECO	NC	NC	NC	NC	NC	NC	Coloration of antiperspirant spray [1, 12]: SCOYE; Coloration of antiperspirant spray [1, 13]: SCOYE; Coloration of antiperspirant spray ([1]; AP SPRAY, 3° C.): NC
(+−)-(4E)-3-METHYL-4-CYCLOPENTADECEN-1-ONE (A) + (+−)-(5E)-3-METHYL-5-CYCLOPENTADECEN-1-ONE (B) + (+−)-(5Z)-3-METHYL-5-CYCLOPENTADECEN-1-ONE (C) [MUSCENONE DELTA]	WH	VCL	SCOYE	NC	NC	NC	NC					NC		NC	NC	NC	NC	Coloration of antiperspirant spray ([1]; AP SPRAY, 3° C.): NC; Coloration of antiperspirant spray [2, 12]: COYE; Coloration of antiperspirant spray [2, 13]: COYE; Coloration of deodorant roll-on [2, 7]: COYE
C=C(CC)CCCC(C)(C)O [2-METHYL-6-METHYLIDENEOCTAN-2-OL]	NC	NC	NC	SCOYE	NC	NC	NC						NC					
1-(3,3-dimethyl-1-cyclohexen-1-yl)-4-penten-1-one (A) + 1-(5,5-dimethyl-1-cyclohexen-1-yl)-4-penten-1-one (B) [DYNASCONE]	WH	VCL	NC	SCOYE	VCOYE	NC	VCOYE						SCOYE					
CCCCCOC(=O)c1ccccc1O [AMYLE SALICYLATE, PENTYL 2-HYDROXYBENZOATE]	WH	VCL	NC	NC	NC	NC	NC	VSCOPI	VSCOPI	VSCOPI	NC		VCL					
